According to patent US10682310B2, “Therapeutic compounds and formulations for intranasal delivery” (priority 2015, dated 2020):
Several values for one entry are separate records, joined by “and”; a condition that tells them apart may be missing. Equal values may be shown once. Where a name gives a salt, the structure may show the parent alone.

Legend:
[1] = tested on: MDCKII-wt monolayer; assay: Membrane permeation across MDCKII-wt monolayers (Transwell)
Method: (§1) In vitro permeation studies were also performed on prodrug/enzyme mixtures prepared at various prodrug and enzyme concentrations. […] The experiments were carried out as follows. Maden Darby Canine Kidney-II wild type (MDCK-IIwt) cells were plated on thin membranes in a six well Transwell apparatus. Following confluence and washing, assay buffer (PBS, pH 7.4) was introduced into the basal side of the membrane. At time zero, solutions of various concentrations of prodrug were combined with 0.25 U/ml of A.O protease and introduced on the […] side of the membrane. Aliquots were then taken, with replacement, from both the basal and apical sides, and assayed for both drug and prodrug. The integrity of the membranes throughout the experiment was confirmed by transepithelial resistance (TEER) and inulin permeation measurements.
(§2) Following previously published procedures (Kapoor M, et al., AAPS J, 2014, 16, 3, 577-585; and Kapoor M, et al., Mol Pharm, 2013, 10, 9, 519-3524), Madin Darby canine kidney II wild type (MDCKII-wt: passages between 10 and 20) cells were cultured and grown as monolayers in 12-well Transwell plates ([…] pore size, polyester, Corning). Transepithelial electrical resistance (TEER) was measured to assure membrane integrity just prior to conversion/permeation experiments. TEER and a Lucifer yellow dye permeability assay were used to reassess monolayer integrity at the conclusion of each experiment.
(§3) In separate experiments, solutions containing 900 μM AVFp or AVFm were rapidly mixed with A.O. protease (4 U/mL) in assay buffer (pH 7.4 at 32° C.), and administered at time zero on the apical side of MDCKII-wt monolayers cultured in a 12-well Transwell plate (Kapoor M, et al., AAPS J, 2014, 16, 3, 577-585; and Kapoor M, et al., Mol Pharm, 2013, 10, 9, 519-3524).
(§4) To assess transport of MDZ through the MDCKII-wt monolayer membrane, MDZ, 55 μM (S=1) was introduced on the apical side of the monolayer in a 12-well Transwell, and accumulation of MDZ on the basal side was assayed as a function of time.

[2] = tested on: A.O. protease (Aspergillus Oryzae); assay: Enzyme kinetics of prodrug conversion by A.O. protease (HPLC, integrated Michaelis-Menten fit); assay type: biochemical; conditions: for conversion of prodrug to DZP: 480 μM prodrug, A.O. protease 2-8 U/mL; for conversion of prodrug to DZP / Km / Vmax: assay buffer pH 7.4, 32° C.; for extent of conversion by A.O. protease: chirally pure prodrug; for catalytic efficiency as Vmax/(U/mL of A.O. protease): pH 7.4, 32° C.
Method: Enzyme Kinetics. To determine the enzyme kinetic parameters KM and Vmax for a prodrug/enzyme system, various concentrations of prodrug were incubated in assay buffer, pH 7.4 containing A.O. protease, at 32° C., for a fixed time period t, at which point the reaction was stopped using methanol as an enzyme denaturant. […] The reactions were carried out to times when there was already substantial conversion. Concentrations of product, Cd(t) were fit against initial prodrug concentrations, Cp (0), using the integrated Michaelis-Menten equation: Cd(t)+KM ln[1−Cd(t)/Cp(0)]=Vmaxt (1) Fitting was carried out using the Matlab nlinfit function (Mathworks).
AVFm and AVFp (each at 480 μM) were incubated with A.O. protease (2-8 U/mL) in assay buffer over various time intervals in assay buffer pH 7.4 at 32° C.
The Michaelis Menten parameters for AVFp reactions were determined by carrying out reactions for t=5 min in solutions containing A.O. protease.
The extent of reaction was determined after t=12 min with MDZ-pro incubated, at different concentrations, in assay buffer with 4 U/ml A.O. protease.

[3] = tested on: A.O. protease; assay: Conversion of prodrug by A.O. protease on apical side of MDCKII-wt monolayers, supersaturated drug; assay type: in vitro ADME, Aspergillus Oryzae; conditions: for precipitates of supersaturated drug formed from prodrug/enzyme: apical compartment after prodrug/A.O. protease administration
Method: The same was also shown for MDZ-pro. The experiments were carried out as follows.
Appropriate molar concentrations of MDZ-pro equivalent to supersaturated MDZ solution were incubated with the converting enzyme in assay buffer, pH 7.4 at 32° C. (nasal temperature). Supersaturation potential, S, was calculated as the ratio between the molar concentration of administered MDZ-pro and the molar concentration of saturated MDZ:
Rapidly mixed solutions of chirally pure MDZ-pro and A.O protease were administered onto the apical side of MDCKII-wt monolayers and MDZ-pro, and MDZ concentrations were analyzed on both the apical and basal sides as a function of time. An example of prodrug and drug kinetics in the apical compartment is shown in FIG. 5b (MDZ-pro 326 μM, A.O. protease 16 U/mL). Rapid conversion of prodrug (complete within 30 min) was followed by an extended residence of supersaturated drug in the apical chamber, with supersaturation reached in less than 5 min. […] Apical concentrations of MDZ were close to those predicted, based on a two compartment model with input due to enzymatic conversion of MDZ-pro to MDZ, with assumed rate constant kconv=Vmax/KM.

[4] = tested on: MDCKII-wt monolayers; assay: Monolayer intactness by TEER and Lucifer yellow permeability after 2 h exposure; conditions: A.O. protease 1-16 U/mL
Method: as §2

[5] = Membrane permeation across MDCKII-wt monolayers (Transwell); conditions: dog, MDCK
Method: as §1, §2, §3, §4

[6] = MDZ equilibrium solubility in assay buffer; assay type: physicochemical; conditions: aqueous buffer, thermodynamic from solid; assay buffer pH 7.4, 32° C.
Method: Equilibrium solubility of MDZ in assay buffer was determined at three temperatures: 25, 32 and 37° C. There was essentially no effect of temperature on drug thermodynamic solubility within this temperature range.

[7] = AVFp to DZP, 0.25 U/ml A.O. protease, t=5 min
[8] = MDZ-pro 326 μM, A.O. protease 16 U/mL, apical compartment
[9] = MDZ-pro to MDZ, 4 U/ml A.O. protease, t=12 min, estimates (s.e.m.)

CN(C(=O)CNC(=O)[C@@H](N)CCCCN)c1ccc(Cl)cc1C(=O)c1ccccc1 [AVF, Avizafone]
permeation of prodrug across the membrane ([1]; AVF/enzyme administered on the apical side): not to permeate the membrane significantly
permeation of prodrug across the monolayer ([1]; in the absence of enzyme, AVF pure or mix (data not shown)): negligible permeation

CN(C(=O)CNC(=O)[C@@H](N)CCCCN)c1ccc(Cl)cc1C(=O)c1ccccc1 [AVFm]
conversion of prodrug to DZP [2]: ~70%

CN(C(=O)CNC(=O)[C@@H](N)CCCCN)c1ccc(Cl)cc1C(=O)c1ccccc1 [AVFp, Avizafone Hydrochloride]
rate and amount of DZP permeation compared with enantiomeric mixture AVFm ([1]; 900 μM prodrug, A.O. protease 4 U/mL, apical, pH 7.4, 32° C., each time point): greater
conversion of prodrug to DZP ([2]; Hydrochloride): 100%
Km [2, 7]: 3.38 ± 0.34 mM
Vmax [2, 7]: 0.518 ± 0.030 mM/min
extent of conversion by A.O. protease [2]: complete conversion
catalytic efficiency as Vmax/(U/mL of A.O. protease) [2]: 2.07 mM/min/(U/ml)

CN1C(=O)CN=C(c2ccccc2)c2cc(Cl)ccc21 [DZP, diazepam]
precipitates of supersaturated drug formed from prodrug/enzyme [3]: no evidence of formation of DZP precipitates

Cc1ncc2n1-c1ccc(Cl)cc1C(c1ccccc1F)=NC2 [MDZ, midazolam]
% TEER values [4]: unaffected
clearance CL of the membrane ([1]; MDZ 55 μM (S=1) apical, 12-well Transwell, two compartment model fit): 0.11 ± 0.01 mL/h
Papp A→B at 55 μM [5]: 26.5 ×10⁻⁶ cm/s
precipitates of supersaturated drug formed from prodrug/enzyme [3]: none were found
solubility thermodynamic [6]: 55 µM and 15.5 µg/mL

Cc1ncc(CNC(=O)[C@@H](N)CCCCN)n1-c1ccc(Cl)cc1C(=O)c1ccccc1F [MDZ-pro, Midazolam L-Lysine Prodrug]
% TEER values [4]: unaffected
conversion via endogenous enzymes ([1]; MDZ-pro alone (without enzyme), apical, 2 h, up to 2 mM): negligible conversion
prodrug permeation through MDCKII-wt monolayers ([1]; MDZ-pro alone (without enzyme), apical, 2 h, up to 2 mM initial prodrug concentration): negligible prodrug permeation
time to complete conversion of prodrug [3, 8]: ≤ 30 min
time to reach supersaturation [3, 8]: less than 5 min
Km [2, 9]: 5.86 ± 0.83 mM
Vmax [2, 9]: 0.233 ± 0.022 mM/min
extent of conversion by A.O. protease [2]: complete conversion
catalytic efficiency as Vmax/(U/mL of A.O. protease) [2]: 0.0582 mM/min/(U/ml)
